Source: patent publication US4276297A, “Pyridylaminotriazole therapeutic agents” (Pfizer Inc., priority 1979, dated 1981)

Tests used:
gastric acid secretion = test: Inhibition of pentagastrin-induced gastric acid secretion in fasted Heidenhain pouch dogs; assay type: in vivo; settings: intravenous; for inhibition in vivo at 10 mg/kg / inhibition in vivo at 1 mg/kg / inhibition in vivo at 5 mg/kg: Canis lupus familiaris, 1.5 h, 90 minutes after start of pentagastrin infusion, lowest acid output after drug vs mean acid output immediately prior, read-out: Acid Antisecretory Activity (% Inhibition)
Experimental: The activity of the compounds of the present invention, as anti-ulcer agents, is determined by their ability to pass at least one of the following two standard biological and/or pharmacological tests, viz., (1) measuring their ability to antagonise those particular actions of histamine which are not blocked by an antihistamine such as mepyramine, i.e., a measure of their ability to block certain histamine H2 -receptor sites; and (2) measuring their ability to inhibit gastric acid secretion in the stomachs of Heidenhain pouch dogs that had previously been treated with pentagastrin in order to stimulate the secretion of said acid (in their stomachs) for these particular purposes.
The following 3-amino-5-(4-pyridyl)-1,2,4-triazole final products of Examples I-V, VII-XII, XIV-XVI, XVIII-XX, XXII-XXIII, XXV-XXVI, XXVIII and XXXII, respectively, were tested for antiulcer activity in terms of their ability to inhibit gastric acid secretion in groups of fasted Heidenhain pouch dogs. No anesthetic was used in this study. The animals were first administered pentagastrin in order to stimulate acid output in their stomachs by the continuous infusion of said drug into a superified leg vein at doses earlier determined to stimulate near maximal acid output from the gastric pouch. Gastric juice was then collected at 30-minute intervals following the start of a pentagastrin infusion amd measured to the nearest one-tenth of a […] (0.1 ml.). Ten collections were taken for each dog during an experiment. Acid concentration was then determined by titrating 1.0 ml. of gastric juice to a pH value of pH 7.4 with 0.1 N aqueous sodium hydroxide, using an Autoburette and a glass electrode pH meter (Radiometer) for these purposes. The animals were then administered the test compounds at 10, 5.0 and 1.0 mg./kg., respectively, or the control vehicle alone, via the intravenous route of administration,at 90 minutes following the start of the pentagastrin infusion. Gastric antisecretory effects were thereafter calculated by comparing the lowest acid output after drug administration with the mean acid output immediately prior to same and the results obtained in this manner are reported in the following table, where the entries given for each individual compound are expressed in terms of percent inhibition (%) at the dose level indicated: […]

[1] = Signs of toxic side effects in Heidenhain pouch dogs after intravenous dosing; assay type: in vivo; settings: 1.0 mg./kg. to 10 mg./kg.
Text: As previously indicated, the 3-amino-5-(4-pyridyl)-1,2,4-triazole compounds of this invention are all readily adapted to therapeutic use as histamine H2 -receptor inhibitors for the control of peptic ulcers, especially in view of their ability to inhibit the secretion of gastric acid in the body to a statistically significant degree. […] The other compounds of this invention also cause similar results. Furthermore, all the herein described compounds of this invention can be administered orally, for the present purposes at hand, without causing any significant untoward pharmacological side reactions to occur in the subject to whom they are so administered. In general, these compounds are ordinarily administered at dosage levels ranging from about 0.5 mg. to about 50 mg. per kg. of body weight per day, although variations will necessarily occur depending upon the condition and individual response of the subject being treated and the particular type of pharmaceutical formulation chosen.

Compound CCCCCCCCCCNc1cc(-c2nc(N)n[nH]2)ccn1 [Example III, 3-amino-5-{2-[N-mono(n-decyl)amino]-4-pyridyl}-1,2,4-triazole] has an inhibition in vivo at 10 mg/kg (gastric acid secretion) of 14%.
For C=CCNc1cc(-c2nc(N)n[nH]2)ccn1 [Example IV], the inhibition in vivo at 1 mg/kg (gastric acid secretion) was 31%.
For CN(C)c1cc(-c2nc(N)n[nH]2)ccn1 [Example VIII, 3-amino-5-[2-(N,N-dimethylamino)-4-pyridyl]-1,2,4-triazole], the inhibition in vivo at 1 mg/kg (gastric acid secretion) was 48%, the inhibition in vivo at 5 mg/kg (gastric acid secretion) was 80% and the inhibition in vivo at 10 mg/kg (gastric acid secretion) was 96%.
In the case of Nc1n[nH]c(-c2ccnc(NCC(F)(F)F)c2)n1 [Example XXV, 3-amino-5-{2-[N-mono(2,2,2-trifluoroethyl)amino]-4-pyridyl}-1,2,4-triazole], the inhibition in vivo at 1 mg/kg (gastric acid secretion) is reported as 10%.
CC(C)Nc1cc(-c2nc(N)n[nH]2)ccn1 [Example XXIII, 3-amino-5-[2-(N-monoisopropylamino)-4-pyridyl]-1,2,4-triazole] showed an inhibition in vivo at 1 mg/kg (gastric acid secretion) of 35% and an inhibition in vivo at 5 mg/kg (gastric acid secretion) of 52%.
In the case of Nc1n[nH]c(-c2ccnc(NCCO)c2)n1 [Example V, 3-amino-5-{2-[N-mono(β-hydroxyethyl)amino]-4-pyridyl}-1,a,4-triazole], the inhibition in vivo at 1 mg/kg (gastric acid secretion) is reported as 23% and the inhibition in vivo at 10 mg/kg (gastric acid secretion) is reported as 34%.
With CCNc1cc(-c2nc(NCC)n[nH]2)ccn1 [Example XI, 3-(monoethylamino)-5-[2-(N-monoethylamino)-4-pyridyl]-1,2,4-triazole] the inhibition in vivo at 1 mg/kg (gastric acid secretion) was 38%.
For CCN(CC)c1cc(-c2nc(N)n[nH]2)ccn1 [Example X, 3-amino-5-[2-(N,N-diethylamino)-4-pyridyl]-1,2,4-triazole], the inhibition in vivo at 5 mg/kg (gastric acid secretion) was 68%.
In the case of CNc1cc(-c2nc(N)n[nH]2)ccn1 [Example XIX, 3-amino-5-[2-(N-monomethylamino)-4-pyridyl]-1,2,4-triazole], the inhibition in vivo at 1 mg/kg (gastric acid secretion) is reported as 50%.
With CCNc1cc(-c2nc(NC)n[nH]2)ccn1 [Example XXVI, 3-(N-monomethylamino)-5-[2-(N-monoethylamino)-4-pyridyl]-1,2,4-triazole] the inhibition in vivo at 1 mg/kg (gastric acid secretion) was 32% and the inhibition in vivo at 5 mg/kg (gastric acid secretion) was 64%.
CCCCCCNc1cc(-c2nc(N)n[nH]2)ccn1 [Example II, 3-amino-5-{2-[N-mono(n-hexyl)amino]-4-pyridyl}-1,2,4-triazole] showed an inhibition in vivo at 1 mg/kg (gastric acid secretion) of 0% and an inhibition in vivo at 10 mg/kg (gastric acid secretion) of 40%.
In the case of Nc1n[nH]c(-c2ccnc(NCCc3ccccc3)c2)n1 [Example XII, 3-amino-5-{2-[N-mono(β-phenylethyl)amino]-4-pyridyl}-1,2,4-triazole], the inhibition in vivo at 1 mg/kg (gastric acid secretion) is reported as 18% and the inhibition in vivo at 10 mg/kg (gastric acid secretion) is reported as 50%.
For Nc1cc(-c2nc(N)n[nH]2)ccn1 [Example XVIII, 3-amino-5-(2-aminopyridyl)-1,2,4-triazole monohydrate], the inhibition in vivo at 1 mg/kg (gastric acid secretion) was 30%, the inhibition in vivo at 5 mg/kg (gastric acid secretion) was 86% and the inhibition in vivo at 10 mg/kg (gastric acid secretion) was 94%.
With CCN(C)c1cc(-c2nc(N)n[nH]2)ccn1 [Example IX, 3-amino-5-[2-(N-methyl-N-ethylamino)-4-pyridyl]-1,2,4-triazole] the inhibition in vivo at 1 mg/kg (gastric acid secretion) was 53%.
For Nc1n[nH]c(-c2ccnc(NCc3ccccc3)c2)n1 [Example XIV, 3-amino-5-[2-(N-monobenzylamino)-4-pyridyl]-1,2,4-triazole], the inhibition in vivo at 1 mg/kg (gastric acid secretion) was 21% and the inhibition in vivo at 10 mg/kg (gastric acid secretion) was 72%.
Compound COCCNc1cc(-c2nc(N)n[nH]2)ccn1 [Example VII, 3-amino-5-{2-[N-mono(β-methoxyethyl)amino]-4-pyridyl}-1,2,4-triazole] has an inhibition in vivo at 1 mg/kg (gastric acid secretion) of 11%.
With CN(Cc1ccccc1)c1cc(-c2nc(N)n[nH]2)ccn1 [Example XXXII, 3-amino-5-[2-(N-methyl-N-benzylamino)-4-pyridyl]-1,2,4-triazole] the inhibition in vivo at 10 mg/kg (gastric acid secretion) was 25%.
For Cc1ccc(CNc2cc(-c3nc(N)n[nH]3)ccn2)cc1C [Example XXVIII, 3-amino-5-{2-[N-mono(3',4'-dimethylbenzyl)amino]-4-pyridyl}-1,2,4-triazole], the inhibition in vivo at 5 mg/kg (gastric acid secretion) was 49%.
Compound Nc1n[nH]c(-c2ccnc(NCc3ccc(Cl)cc3)c2)n1 [Example XV, 3-amino-5-{2-[N-mono(p-chlorobenzyl)amino]-4-pyridyl}-1,2,4-triazole] has an inhibition in vivo at 1 mg/kg (gastric acid secretion) of 21% and an inhibition in vivo at 10 mg/kg (gastric acid secretion) of 62%.
Cc1ccc(CNc2cc(-c3nc(N)n[nH]3)ccn2)cc1 [Example XVI] showed an inhibition in vivo at 5 mg/kg (gastric acid secretion) of 33%.
In the case of CCCNc1cc(-c2nc(N)n[nH]2)ccn1 [Example I, 3-amino-5-{2-[N-mono(n-propyl)amino]-4-pyridyl}-1,2,4-triazole], the inhibition in vivo at 1 mg/kg (gastric acid secretion) is reported as 33% and the inhibition in vivo at 5 mg/kg (gastric acid secretion) is reported as 64%.
In the case of CCNc1cc(-c2nc(N)n[nH]2)ccn1 [Example XX, 3-amino-5-[2-(N-monoethylamino)-4-pyridyl]-1,2,4-triazole], the “signs of toxic side effects” value [1] is reported as “without showing any substantial signs of toxic side effects”, the inhibition in vivo at 1 mg/kg (gastric acid secretion) is reported as 51% and the inhibition in vivo at 5 mg/kg (gastric acid secretion) is reported as 89%. The inhibition in vivo at 10 mg/kg (gastric acid secretion) was 93% and the “inhibit the pentagastrin-induced secretion of gastric acid (in words)” value (gastric acid secretion; 1.0 mg./kg. to 10 mg./kg., Heidenhain pouch dogs) was “consistently inhibit the pentagastrin-induced secretion of gastric acid from stomachs of Heidenhain pouch dogs to a significantly high degree”.
Compound CCCCNc1cc(-c2nc(N)n[nH]2)ccn1 [Example XXII, 3-amino-5-{2-[N-mono(n-butyl)amino]-4-pyridyl}-1,2,4-triazole] has an inhibition in vivo at 1 mg/kg (gastric acid secretion) of 29%.
